Converted amounts (≈) assume the structure as drawn. The source made the active and inactive calls. The rule behind the calls is not given here.

The target of series [1] is T1, Mushroom tyrosinase (Agaricus bisporus, UniProt O42713+Q00024+C7FF04+C7FF05). Kind of series: Inhibition of monophenolase activity of mushroom tyrosinase.
The target in series [2] is T1, Mushroom tyrosinase. Kind of series: Inhibition of monophenolase activity of mushroom tyrosinase using L-Tyrosine substrate incubated for 5 mins followed by substrate addition and measured for 30 mins by colorimetry.
The subject of series [3] is B16-F10. The experiment in a line: Cytotoxicity against mouse B16-F10 cells assessed as reduction in cell viability incubated for 72 hrs by XTT assay. The class given is cell-based. The conditions noted are these: B16-F10, 72 h.
In series [4] the target is T1, Mushroom tyrosinase. Kind of series: Inhibition of diphenolase activity of mushroom tyrosinase assessed as reduction in dopachrome formation using L-DOPA substrate incubated for 30 mins.
Series [5] is described as follows: Solubility of compound in water at >[…] uM. The class given is physicochemical. The conditions noted are these: buffer; dose >50 µM.
Series [6] relates to B16-F10. The experiment in a line: Inhibition of melanin production in mouse B16-F10 cells at 12.5 ug/ml relative to control. It is filed as functional.
Series [7] deals with B16-F10. The experiment in a line: Inhibition of melanin production in mouse B16-F10 cells at 25 ug/ml relative to control. It is filed as functional.
In series [8] the target is T2, Mushroom tyrosinase (Agaricus bisporus) (UniProt O42713+Q00024+C7FF04+C7FF05). The experiment in a line: Inhibition of monophenolase activity of mushroom tyrosinase assessed as reduction in dopachrome formation using L-Tyrosine substrate incubated for 30 mins by spectrophotometry relative to control.
Series [9] has as its target T1, Mushroom tyrosinase. Kind of series: Inhibition of monophenolase activity of mushroom tyrosinase using L-Tyrosine substrate incubated for 10 mins followed by substrate addition and measured for 20 mins.
Series [10] in a line: Inhibition of monophenolase activity of tyrosinase in C57BL/6 mouse melan-a cells incubated for 72 hrs by bradford method.
Series [11] deals with B16-F10. The experiment in a line: Inhibition of melanin production in mouse B16-F10 cells at 12.5 to 25 ug/ml relative to control. The conditions noted are these: dose 12.5-25 µg/ml. It is filed as functional.
Series [12] has as its system B16-F10. Kind of series: Inhibition of melanin production in mouse B16-F10 cells at 6.25 ug/ml relative to control. The class given is functional.
Series [13] deals with T2, Mushroom tyrosinase (Agaricus bisporus). Kind of series: Inhibition of monophenolase activity of mushroom tyrosinase at 100 uM relative to control.
The subject of the next series is B16-F1. Kind of series: Inhibition of melanin production in C57BL/6J mouse B16-F1 cells incubated for 5 days. It is filed as functional, cell-based. The conditions noted are these: B16-F1, 120 h.
Series [14] deals with B16-F10. Kind of series: Inhibition of melanin production in mouse B16-F10 cells at 100 ug/ml relative to control. It is filed as functional.
Series [15] relates to B16-F10. Kind of series: Inhibition of melanin production in mouse B16-F10 cells at 21.42 ug/ml relative to control. The class given is functional, cell-based. The note with it: dose 21.42 µg/ml.
The target of series [16] is T1, Mushroom tyrosinase. Kind of series: Inhibition of monophenolase activity of mushroom tyrosinase using L-Tyrosine substrate incubated for 30 mins by spectrophotometry.
The next series is described as follows: cells. The conditions noted are these: Mus musculus, B16-BL6, 120 h.
Series [17] deals with T1, Mushroom tyrosinase. Kind of series: Inhibition of monophenolase activity of mushroom tyrosinase using L-Tyrosine substrate incubated for 10 mins followed by substrate addition and measured for 15 mins.

Description for cells: Cytotoxicity against mouse B16-BL6 cells assessed as reduction in cell viability incubated for 5 days by MTT assay

On to `CC(C)=CCc1c(O)ccc(C(=O)/C=C/c2ccc(O)cc2O)c1O` [MORACHALCONE A], for which the IC50 (commonly the concentration that inhibits the measured activity by half) against Mushroom tyrosinase [1] came to 0.14 µM.
For `O=c1c(O)c(-c2ccccc2)oc2cc(O)cc(O)c12` [GALANGIN], the values for the IC50 against Mushroom tyrosinase [2], in the series on B16-F10 [3] and at Mushroom tyrosinase [4] were 420.37 µM, > 200 µM and 101 µM, respectively. The solubility result in [5] is recorded as “Insoluble”. Moreover, the inhibition (usually the share of the control response that was lost under treatment) at 12.5 µg/mL in the series with B16-F10 [6] stood at 30%. The same molecule yielded an inhibition at 25 µg/mL in the series on B16-F10 [7] of 40%. Besides, the inhibition in [8] turned out to be 20%.
On to `Cc1c(O)c(C)c2c(c1O)C(=O)C[C@@H](c1ccccc1)O2` [DEMETHOXYMATTEUCINOL], for which, on Mushroom tyrosinase [9], the IC50 was found to be 97.6 µM.
Consider `O=C1C[C@@H](c2ccccc2)Oc2cc(O)cc(O)c21` [PINOCEMBRIN], for which the IC50 against Mushroom tyrosinase [2] is > 200 µM; in the series with B16-F10 [3], 30.1 µM. Moreover, in the series on B16-F10 [6], testing at 12.5 µg/mL gave an inhibition of 8%.
`COc1cc(O)c(C(=O)[C@@H]2[C@H](CC=C(C)C)C(C)=CC[C@H]2c2ccccc2)c(O)c1` [PANDURATIN A] gave an IC50 in series [10] of 8.2 µM.
Regarding `O=C(CCc1ccccc1)c1c(O)cc(O)cc1O`, the IC50 came out at 68.48 µM against Mushroom tyrosinase [2] and 219 µM in the series on B16-F10 [3]. In the series on B16-F10 [11], the “inhibition (INH)” value turned out to be 25%.
`COc1cc(O)c(C(=O)CCc2ccccc2)c(O)c1`: the IC50 was > 200 µM at Mushroom tyrosinase [2] and 373 µM with B16-F10 [3]. In addition, the inhibition at 6.25 µg/mL in the series with B16-F10 [12] was determined as 10%.
In the case of `O=C1C[C@@H](c2ccc(O)cc2)Oc2cc(O)cc(O)c21`, the inhibition in series [13] was found to be 2.8%.
In the case of `OC[C@H]1O[C@@H](Oc2ccc(O)cc2)[C@H](O)[C@@H](O)[C@@H]1O` [ARBUTIN], the IC50 with B16-F10 [3] was 391 µM; with B16-F1 it was 122 µM. At 100 µg/mL the inhibition with B16-F10 [14] was 78%.
Take `CC(C)=CCc1c(O)cc(O)c2c1O[C@H](c1ccccc1)CC2=O` [GLABRANIN]: the IC50 on Mushroom tyrosinase [9] was 80.6 µM.
Regarding `O=c1c(-c2ccc(O)cc2)coc2cc(O)cc(O)c12` [GENISTEIN], the 50% inhibitory concentration (IC50) at Mushroom tyrosinase [2] is > 200 µM; in the series on B16-F10 [3], 79.2 µM; against Mushroom tyrosinase [16], 822 µM; in “cells” it was 4.18 µg/mL (≈ 15.5 µM). In the series with B16-F10 [15], the inhibition result was “inactive”.
At Mushroom tyrosinase [17], `O=C(/C=C/c1ccc(O)cc1O)c1ccc(O)cc1O` displayed an IC50 of 0.06 µM.

The values are drawn from ChEMBL document CHEMBL4715783, “Insights into tyrosinase inhibition by compounds isolated from Greyia radlkoferi Szyszyl using biological activity, molecular docking and gene expression analysis” (Bioorg Med Chem, 2016).
